Experimental data from patent US10633675B2, “Microbial engineering for the production of chemical and pharmaceutical products from the isoprenoid pathway” (priority 2009, dated 2020).

Legend:
[1] = system: engineered strains of E. coli; assay: Effect of externally-introduced indole on cell growth; format: cell-based
Excerpt: (§1) FIGS. 15A-15C. Impact of metabolite byproduct Indole accumulation on taxadiene production and growth. […] Strains 26 to 28 and 30 to 32, all with chromosomally integrated upstream pathway expression, were chosen for consistent comparison. The two sets of strains differ only in the expression of the downstream pathway with the second set (30 to 32) having twice the level of expression of the first. In strains 26 to 28 and 30 to 32, upstream expression increased by changing the promoters from Trc, to T5 and T7, respectively. […] The fold improvements are relative to strain 25 and 29, respectively, for the two sets. […] Different concentrations of indole were introduced into cultures of cells cultured in minimal media with 0.5% yeast extract. […] Data are mean+/−SD for three replicates. Strains devoid of the downstream pathway and with different strengths of the upstream pathway (1, 2, 6, 21, 40 and 100) were selected.

[2] = system: taxadiene synthesis by strain 26; assay: Effect of externally-introduced indole on taxadiene production; format: cell-based, E. coli
Excerpt: as §1

c1ccc2[nH]ccc2c1 [indole]
effect on cell growth ([1]; further increasing the indole concentration, level of inhibition very strain dependent (FIG. 15C)): inhibited cell growth | effect on cell growth of strain 26 compared with strains devoid of the downstream pathway ([1]; strain 26, the high taxadiene producer (FIG. 15C)): strongest inhibition | exogenous indole level at which taxadiene synthesis is severely inhibited ([2]; exogenous indole (FIG. 15B)): > 100 mg/L | effect on taxadiene production ([2]; indole concentration increased from 50 mg/L to 100 mg/L, minimal media with 0.5% yeast extract (FIG. 15B)): significantly reduced
